Reference: BigSolDB 2.1

OC[C@@H](O)C(O)[C@@H](O)CO (some centres not stated)
Conditions	solubility (mole fraction)
in DMF, 293.21 K	0.0411
in DMF, 298.29 K	0.0504
in DMF, 303.26 K	0.0609
in DMF, 308.24 K	0.0736
in DMF, 313.22 K	0.0895
in DMF, 318.32 K	0.11
in DMF, 323.2 K	0.134
in DMF, 328.24 K	0.166
in DMF, 333.27 K	0.204
in acetone, 293.29 K	0.000203
in acetone, 298.18 K	0.00024
in acetone, 303.26 K	0.000304
in acetone, 308.22 K	0.000401
in acetone, 313.2 K	0.000543
in acetone, 318.23 K	0.000743
in acetone, 323.2 K	0.00101
in ethanol, 293.23 K	0.00173
in ethanol, 298.28 K	0.00242
in ethanol, 303.17 K	0.00309
in ethanol, 308.21 K	0.00397
in ethanol, 313.19 K	0.00522
in ethanol, 318.29 K	0.00709
in ethanol, 323.24 K	0.00966
in ethanol, 328.19 K	0.0132
in ethanol, 333.22 K	0.0179
in isopropanol, 293.28 K	0.00113
in isopropanol, 298.2 K	0.00154
in isopropanol, 303.23 K	0.00212
in isopropanol, 308.19 K	0.00268
in isopropanol, 313.32 K	0.00342
in isopropanol, 318.21 K	0.00443
in isopropanol, 323.16 K	0.00588
in isopropanol, 328.21 K	0.00798
in isopropanol, 333.27 K	0.0109
in isopropanol, 338.19 K	0.0146
in isopropanol, 343.23 K	0.0194
in n-butanol, 293.16 K	0.00113
in n-butanol, 298.21 K	0.00154
in n-butanol, 303.26 K	0.00212
in n-butanol, 308.27 K	0.00268
in n-butanol, 313.22 K	0.00342
in n-butanol, 318.16 K	0.00443
in n-butanol, 323.23 K	0.00588
in n-butanol, 328.32 K	0.00798
in n-butanol, 333.24 K	0.0109
in n-butanol, 338.22 K	0.0146
in n-butanol, 343.76 K	0.0194
in n-pentanol, 293.2 K	0.000298
in n-pentanol, 298.18 K	0.000483
in n-pentanol, 303.26 K	0.000734
in n-pentanol, 308.29 K	0.00101
in n-pentanol, 313.19 K	0.00136
in n-pentanol, 318.24 K	0.00188
in n-pentanol, 323.29 K	0.00263
in n-pentanol, 328.23 K	0.00364
in n-pentanol, 333.22 K	0.005
in n-pentanol, 338.33 K	0.00682
in n-pentanol, 343.24 K	0.00903
in toluene, 293.26 K	3.99e-05
in toluene, 298.28 K	4.18e-05
in toluene, 303.19 K	4.52e-05
in toluene, 308.17 K	5e-05
in toluene, 313.23 K	5.63e-05
in toluene, 318.33 K	6.42e-05
in toluene, 323.21 K	7.31e-05
in toluene, 328.22 K	8.37e-05
in toluene, 333.3 K	9.6e-05
in toluene, 338.16 K	0.000109
in toluene, 343.19 K	0.000124
in water, 293.28 K	0.162
in water, 298.3 K	0.18
in water, 303.17 K	0.203
in water, 308.21 K	0.232
in water, 313.29 K	0.266
in water, 318.26 K	0.302
in water, 323.25 K	0.339
in water, 328.21 K	0.377
